Data from patent US11738008B2, “N-methyl-D-aspartic acid receptor modulators” (Emory University, priority 2018, dated 2023).
pEC50: −log10 of the molar value. Converted amounts (≈) assume the structure as drawn. Where two headings read alike, the source gives them in different places.

Columns and labels:
[1] = nephelometer, oocyte recording solution
[2] = molecular target: rat GluN1/GluN2D (Rattus norvegicus, UniProt Q62645); experiment: Two-electrode voltage clamp recordings in Xenopus laevis oocytes, potentiation of GluN1/GluN2D; format: cell-based; settings: for GluN2D Max %: maximal response, current without potentiator = 100%; for GluN2D potentiation (NE class): 30 μM
rat GluN1/GluN2D (Rattus norvegicus, UniProt Q62645), sequence (Q62645 28-1323, other chains not shown): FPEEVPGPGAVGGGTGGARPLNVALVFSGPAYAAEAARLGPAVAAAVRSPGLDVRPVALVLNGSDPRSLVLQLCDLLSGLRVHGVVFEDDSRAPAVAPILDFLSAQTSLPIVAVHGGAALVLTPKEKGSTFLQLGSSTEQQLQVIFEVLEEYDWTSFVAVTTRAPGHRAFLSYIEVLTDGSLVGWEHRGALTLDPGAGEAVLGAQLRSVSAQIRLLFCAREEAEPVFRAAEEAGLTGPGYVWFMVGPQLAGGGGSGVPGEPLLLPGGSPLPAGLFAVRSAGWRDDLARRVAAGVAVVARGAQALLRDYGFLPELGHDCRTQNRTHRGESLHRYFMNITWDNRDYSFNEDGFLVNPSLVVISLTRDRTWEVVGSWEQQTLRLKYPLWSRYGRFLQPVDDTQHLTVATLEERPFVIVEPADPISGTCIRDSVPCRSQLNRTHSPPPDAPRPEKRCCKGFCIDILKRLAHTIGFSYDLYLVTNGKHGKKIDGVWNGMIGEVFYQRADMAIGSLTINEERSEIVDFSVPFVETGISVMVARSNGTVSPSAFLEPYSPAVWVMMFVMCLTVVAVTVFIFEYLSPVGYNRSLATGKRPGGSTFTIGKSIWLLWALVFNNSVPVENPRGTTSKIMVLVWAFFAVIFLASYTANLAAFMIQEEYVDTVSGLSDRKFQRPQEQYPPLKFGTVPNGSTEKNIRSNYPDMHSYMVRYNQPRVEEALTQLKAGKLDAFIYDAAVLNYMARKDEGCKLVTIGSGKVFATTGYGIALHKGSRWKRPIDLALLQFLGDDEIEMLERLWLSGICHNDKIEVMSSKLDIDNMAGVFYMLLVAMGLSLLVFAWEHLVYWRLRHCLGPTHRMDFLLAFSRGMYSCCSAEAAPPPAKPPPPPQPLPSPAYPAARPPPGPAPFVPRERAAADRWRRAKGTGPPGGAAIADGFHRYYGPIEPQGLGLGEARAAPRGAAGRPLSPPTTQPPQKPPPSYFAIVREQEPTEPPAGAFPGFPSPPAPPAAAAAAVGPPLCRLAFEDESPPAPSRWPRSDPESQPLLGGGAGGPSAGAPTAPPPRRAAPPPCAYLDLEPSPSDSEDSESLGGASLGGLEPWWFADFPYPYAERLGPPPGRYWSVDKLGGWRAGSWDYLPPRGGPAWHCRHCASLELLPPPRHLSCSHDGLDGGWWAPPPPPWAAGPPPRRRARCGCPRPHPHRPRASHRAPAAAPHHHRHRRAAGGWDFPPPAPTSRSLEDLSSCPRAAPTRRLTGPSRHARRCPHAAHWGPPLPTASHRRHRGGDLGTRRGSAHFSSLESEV
Experimental: (§1) Xenopus laevis oocytes were purchased unfertilized from Ecocyte (Austin, Tex.). The oocytes were injected with mRNA to express recombinant rat GluN1/GluN2A, GluN1/GluN2B, GluN1/GluN2C, and GluN1/GluN2D and two-electrode voltage clamp (TEVC) recordings were performed. Drs. S. Heinemann (Salk Institute), S. Nakanishi (Kyoto University), and P. Seeburg (University of Heidelberg) provided the cDNAs for rat GluN1-1a (GenBank accession numbers U11418 and U08261, referred to as GluN1 henceforth), GluN2A (D13211), GluN2B (U11419), GluN2C (M91563), and GluN2D (D13213). GluN2C and GluN2D were altered according to literature precedent. […] To prevent the current increase typically seen during experiments with oocytes expressing GluN1/GluN2A receptors, the oocytes were either injected with 20 nL of 100 mM K-BAPTA (potassium 1,2-bis(o-aminophenoxy)ethane-N,N,N,N-tetraacetic acid) or pretreated with 50 μM BAPTA-AM (1,2-bis(o-aminophenoxy)ethane-N,N,N,N-tetraacetic acid tetraacetoxymethyl ester) for 10 minutes.

[3] = molecular target: rat GluN1/GluN2D (Rattus norvegicus, UniProt P35439+Q62645); experiment: as above; format: cell-based; settings: for pEC50: read-out: GluN2D EC50
rat GluN1/GluN2D (Rattus norvegicus, UniProt P35439+Q62645), sequence (Q62645 28-1323, other chains not shown): as above
Experimental: as §1

[4] = molecular target: rat GluN1/GluN2C (Rattus norvegicus, UniProt P35439+Q00961); experiment: Two-electrode voltage clamp recordings in Xenopus laevis oocytes, potentiation of GluN1/GluN2C; format: cell-based; settings: for pEC50: read-out: GluN2C EC50
rat GluN1/GluN2C (Rattus norvegicus, UniProt P35439+Q00961), sequence (Q00961 20-1237, other chains not shown): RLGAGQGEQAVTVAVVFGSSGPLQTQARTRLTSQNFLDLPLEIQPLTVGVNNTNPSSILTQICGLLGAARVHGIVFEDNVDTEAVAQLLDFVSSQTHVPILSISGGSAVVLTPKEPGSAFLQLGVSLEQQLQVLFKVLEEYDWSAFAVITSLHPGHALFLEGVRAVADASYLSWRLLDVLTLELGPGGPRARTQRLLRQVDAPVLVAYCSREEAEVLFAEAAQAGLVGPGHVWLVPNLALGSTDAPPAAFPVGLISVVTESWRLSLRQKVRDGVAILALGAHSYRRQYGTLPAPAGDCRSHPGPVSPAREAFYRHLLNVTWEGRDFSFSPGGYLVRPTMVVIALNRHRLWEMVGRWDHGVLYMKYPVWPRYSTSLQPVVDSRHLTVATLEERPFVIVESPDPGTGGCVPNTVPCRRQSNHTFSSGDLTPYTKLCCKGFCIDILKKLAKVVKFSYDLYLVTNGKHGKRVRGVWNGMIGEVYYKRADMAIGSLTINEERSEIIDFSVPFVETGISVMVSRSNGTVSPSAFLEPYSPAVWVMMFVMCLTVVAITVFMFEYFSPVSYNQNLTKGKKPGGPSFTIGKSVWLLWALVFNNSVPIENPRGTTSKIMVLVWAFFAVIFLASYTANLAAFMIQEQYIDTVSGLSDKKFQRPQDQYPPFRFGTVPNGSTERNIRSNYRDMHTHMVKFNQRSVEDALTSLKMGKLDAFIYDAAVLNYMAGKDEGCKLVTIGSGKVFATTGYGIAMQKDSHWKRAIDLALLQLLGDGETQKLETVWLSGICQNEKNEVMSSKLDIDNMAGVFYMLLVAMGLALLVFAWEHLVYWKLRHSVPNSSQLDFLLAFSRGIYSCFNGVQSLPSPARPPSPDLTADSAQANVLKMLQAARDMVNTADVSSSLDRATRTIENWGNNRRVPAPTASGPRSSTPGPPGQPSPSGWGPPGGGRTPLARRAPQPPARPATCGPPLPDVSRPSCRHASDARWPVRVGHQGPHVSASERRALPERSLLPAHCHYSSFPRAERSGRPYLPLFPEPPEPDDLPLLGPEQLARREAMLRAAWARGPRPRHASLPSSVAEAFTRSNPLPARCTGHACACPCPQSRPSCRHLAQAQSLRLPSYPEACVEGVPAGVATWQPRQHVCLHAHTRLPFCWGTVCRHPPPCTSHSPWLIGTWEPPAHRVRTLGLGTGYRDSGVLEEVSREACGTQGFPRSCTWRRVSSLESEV
Experimental: as §1

[5] = molecular target: rat GluN1/GluN2C (Rattus norvegicus, UniProt Q00961); experiment: as above; format: cell-based; settings: for GluN2C Max %: maximal response, current without potentiator = 100%; for GluN2C potentiation (NE class): 30 μM
rat GluN1/GluN2C (Rattus norvegicus, UniProt Q00961), sequence (Q00961 20-1237, other chains not shown): as above
Experimental: as §1

[6] = system: GluN2A/B, AMPAR, or kainate receptors; settings: previously described; cited from earlier work
[7] = system: schizophrenia-like symptoms; settings: mice; Suryavanshi et al. 2014; cited from earlier work
[8] = system: fear and extinction learning; settings: mice; Ogden et al. 2014; cited from earlier work
[9] = system: GluN2C/D; settings: Mullasseril et al. 2010; read-out: potency at GluN2C/D; cited from earlier work

Row | SMILES | GluN2D (max) (%) [2] | GluN2C (max) (%) [5] | GluN2D Max % [2] [%] | pEC50 [3] | pEC50 [4] | GluN2C Max % [5] [%] | other results
1 | COc1ccc(OCC2c3cccn3CCN2C(=O)c2cccc(C(F)(F)F)c2)cc1 (racemic) [1180-450, (1-((4-methoxyphenoxy)methyl)-3,4-dihydropyrrolo[1,2-a]pyrazin-2(1H)-yl)(3-(trifluoromethyl)phenyl)methanone] | (288) % | (381) % |  |  |  |  | Solubility [1]: 58 µM (≈ 25 µg/mL); EC50 ([3]; read-out: GluN2D pEC50 [95% CI] (converted)): 2 µM; EC50 ([4]; read-out: GluN2C pEC50 [95% CI] (converted)): 1.58 µM
2 | COc1ccc(OCC2c3sccc3CCN2C(=O)c2cccc(Cl)c2)cc1 (centres unmarked) [1180-400, (3-Chlorophenyl)(7-((4-methoxyphenoxy)methyl)-4,7-dihydrothieno[2,3-c]pyridin-6(5H)-yl)methanone] |  |  | 391 | 5.46 | 5.42 | 288 | 
3 | COc1ccc(OCC2c3ccsc3CCN2C(=O)c2cccc(Cl)c2)cc1 (centres unmarked) [1180-401, (3-Chlorophenyl)(4-((4-methoxyphenoxy)methyl)-6,7-dihydrothieno[3,2-c]pyridin-5(4H)-yl)methanone] |  |  | 369 | 5.33 | 5.44 | 320 | 
4 | COc1ccc(OCC2c3sc(C)nc3CCN2C(=O)c2cccc(Cl)c2)cc1 (centres unmarked) [1180-402, (3-Chlorophenyl)(4-((4-methoxyphenoxy)methyl)-2-methyl-6,7-dihydrothiazolo[5,4-c]pyridin-5(4H)-yl)methanone] |  |  |  |  |  |  | GluN2D potentiation (NE class) [2]: NE (NE indicates less than 20% potentiation at 30 μM); GluN2C potentiation (NE class) [5]: NE (NE indicates less than 20% potentiation at 30 μM)
5 | COc1ccc(OCC2c3occc3CCN2C(=O)c2cccc(Cl)c2)cc1 (centres unmarked) [1180-403, (3-Chlorophenyl)(7-((4-methoxyphenoxy)methyl)-4,7-dihydrofuro[2,3-c]pyridin-6(5H)-yl)methanone] |  |  | 527 | 5.02 | 5.13 | 353 | 
6 | COc1ccc(OCC2c3sccc3CCN2C(=O)c2ccc(Cl)s2)cc1 (centres unmarked) [1180-404, (5-Chlorothiophen-2-yl)(7-((4-methoxyphenoxy)methyl)-4,7-dihydrothieno[2,3-c]pyridin-6(5H)-yl)methanone] |  |  | 352 | 5.13 | 5.29 | 269 | 
7 | COc1ccc(OCC2c3sccc3CCN2C(=O)/C=C/C(F)(F)F)cc1 (centres unmarked) [1180-405, (E)-4,4,4-trifluoro-1-(7-((4-methoxyphenoxy)methyl)-4,7-dihydrothieno[2,3-c]pyridin-6(5H)-yl)but-2-en-1-one] |  |  | 317 | 4.89 | 4.89 | 282 | 
8 | COc1ccc(OCC2c3cnn(C)c3CCN2C(=O)c2cccc(Cl)c2)cc1 (centres unmarked) [1180-407, (3-Chlorophenyl)(4-((4-methoxyphenoxy)methyl)-1-methyl-1,4,6,7-tetrahydro-5H-pyrazolo[4,3-c]pyridin-5-yl)methanone] |  |  |  |  |  |  | GluN2D response at 100 μM ([2]; @ 100 μM): 216% @ 100 μM; GluN2C response at 100 μM ([5]; @ 100 μM): 207% @ 100 μM
9 | COc1ccc(OCC2c3cnsc3CCN2C(=O)c2cccc(Cl)c2)cc1 (centres unmarked) [1180-411, (3-Chlorophenyl)(4-((4-methoxyphenoxy)methyl)-6,7-dihydroisothiazolo[4,5-c]pyridin-5(4H)-yl)methanone] |  |  | 238 | 4.82 | 4.96 | 194 | 
10 | COc1ccc(OCC2c3cnn(C)c3CCN2C(=S)c2cccc(Cl)c2)cc1 (centres unmarked) [1180-413, (3-Chlorophenyl)(4-((4-methoxyphenoxy)methyl)-1-methyl-1,4,6,7-tetrahydro-5H-pyrazolo[4,3-c]pyridin-5-yl)methanethione] |  |  |  |  |  |  | GluN2D potentiation (NE class) [2]: NE (NE indicates less than 20% potentiation at 30 μM); GluN2C potentiation (NE class) [5]: NE (NE indicates less than 20% potentiation at 30 μM)
11 | COc1ccc(OCC2c3ccsc3CCN2C(=S)c2cccc(Cl)c2)cc1 (centres unmarked) [1180-414, (3-Chlorophenyl)(4-((4-methoxyphenoxy)methyl)-6,7-dihydrothieno[3,2-c]pyridin-5(4H)-yl)methanethione] |  |  |  |  |  |  | GluN2D potentiation (NE class) [2]: NE (NE indicates less than 20% potentiation at 30 μM); GluN2C potentiation (NE class) [5]: NE (NE indicates less than 20% potentiation at 30 μM)
12 | COc1ccc(OCC2c3cccn3CC(=O)N2Cc2cccc(F)c2)cc1 (centres unmarked) [1180-453, 2-(3-fluorobenzyl)-1-((4-methoxyphenoxy)methyl)-1,2-dihydropyrrolo[1,2-a]pyrazin-3(4H)-one] | (334) % | (348) % |  |  |  |  | Solubility [1]: 74 µM (≈ 28.2 µg/mL)
13 | COc1ccc(OCC2c3cc(OC)c(OC)cc3CCN2C(=O)c2cccc(Cl)c2)cc1 (centres unmarked) [CIQ] | 215% | 233% |  |  |  |  | activity at GluN2A/B, AMPAR, or kainate receptors [6]: no activity; effect on schizophrenia-like symptoms in animal models [7]: attenuate schizophrenia-like symptoms; effect on fear and extinction learning in animal models [8]: facilitate the retention of fear and extinction learning; pEC50 [9]: 5.00 to 5.30
14 | COc1ccc(OC[C@H]2c3cccn3CC(=O)N2Cc2cccc(C(F)(F)F)c2)cc1 [R-(+)-1180-447] | 332% | 276% |  |  |  |  | 
15 | COc1ccc(OC[C@H]2c3cccn3CCN2C(=O)c2cccc(C(F)(F)F)c2)cc1 [R-(+)-1180-450] | 542% | 464% |  |  |  |  | 
